# Key:
# E. coli TOP10F' = experiment: Growth inhibition after 7 hours (EC80/EC50); details: for EC50 / IC80: Escherichia coli, 7 h; for EC50: read-out: EC50 TOP10F'; for IC80: read-out: EC80 TOP10F'
# [1] = system: E. coli MC4100 FQR and GEPR mutants; experiment: Growth kinetics on resistant mutants; assay type: cell-based; details: EC80 concentrations, Fig. S3
# Protocol: ONC of E. coli MC4100 were diluted to OD600 = 0.07 in 20 mL LB supplemented with an initial concentration of 0.4 μM lomefloxacin, 8 μM gepotidacin, or no antibiotic. After overnight incubation, part of the culture was plated onto LB agar plates with the same concentration of lomefloxacin or gepotidacin to isolate resistant colonies. OD600 of the remaining culture was determined and diluted to OD600 = 0.1 into fresh medium with a 1.5–2-fold increased concentration of lomefloxacin or gepotidacin. […] Resistant colonies were sent for Whole Genome Sequencing using short Illumina reads at MicrobesNG (Birmingham, UK). Sequencing data was analyzed using CLC Genomics Workbench (Qiagen).
# Figure S3: Growth kinetics of lomefloxacin, gepotidacin, A2 and B1 on WT, FQR and GEPR mutants. E. coli
# TOP10F’ cells were treated with EC80 concentrations of compounds and growth (OD600) recorded over time.
# Graphs indicate % growth compared to DMSO control. Error bars indicate standard deviations of triplicates. […]
# E. coli TOP10F’ cells = experiment: Phase contrast and fluorescence microscopy of cell morphology; assay type: cell-based; details: EC50 concentrations, 4 h, vs DMSO
# Excerpt: DMSO-treated control cells had normal rod-shaped morphology. Drastic changes to cell and membrane morphology were observed following compound treatment.
# Cells were stained with Nile red to visualize membranes and Hoechst to label DNA. a: Phase Contrast; b: Nile Red; c: Hoechst; d: overlay of Nile Red and Hoechst. White arrows indicate differences observed between control and compound treated cells, such as different localization and increased number of bright, lipid spots, vesicle-like bulges, apparent leakage of lipid contents and condensed DNA. Pictures are representative of at least 5 images taken per sample, during two independent experiments with similar results. Bottom panels show (B) cell length or (C) cell area after treatment with DMSO or EC50 concentrations of A2 or B1. Cells were analyzed after 4h of compound treatment. Data are representative of two independent experiments with similar results. Data were analyzed using a One-Way ANOVA with Kruskal–Wallis test for multiple comparisons. **** = p < 0.0001. Cells were counted from 3 to 5 pictures of each condition (DMSO: n = 1773, A2: n = 1920, B1: n = 555). Data are representative of two individual experiments with similar results.
# Cells were collected at 4600g for 5 min. […]
# Images were processed using ImageJ. Cell length and width were quantified using Oufti. Image data were analyzed using GraphPad Prism 10.3.1. […]
# E. coli 25922 = experiment: MIC broth microdilution; assay type: cell-based; details: Escherichia coli, CAMHB, median of triplicates, read-out: MIC (μg/mL) E. coli 25922
# Protocol: (§1) The antibacterial activity of the compounds was determined by measuring their minimum inhibitory concentration (MIC) values using the broth microdilution method according to the Clinical and Laboratory Standards Institute guidelines (CLSI). Briefly, a single colony from blood agar plates was inoculated into cation-adjusted Mueller-Hinton broth (CAMHB) and grown to OD600 = 0.5. Next, 10^6 CFU/mL were added to a 2-fold serial dilution series of test compounds and incubated at 37 °C, 600 rpm overnight (18–20 h for Gram-negative strains, 20–24 h for Gram-positive strains), after which the plates were visually inspected for bacterial growth. MICs are reported as the median of triplicates.
# A. baumanni 9955 = experiment: MIC broth microdilution; assay type: cell-based; details: Acinetobacter baumannii, clinical isolate, CAMHB, median of triplicates, read-out: MIC (μg/mL) A. baumanni 9955
# Protocol: as §1
# K. pneumoniae 13883 = experiment: MIC broth microdilution; assay type: cell-based; details: Klebsiella pneumoniae, clinical isolate, CAMHB, median of triplicates, read-out: MIC (μg/mL) K. pneumoniae 13883
# Protocol: as §1
# P. aeruginosa 27853 = experiment: MIC broth microdilution; assay type: cell-based; details: Pseudomonas aeruginosa, clinical isolate, CAMHB, median of triplicates, read-out: MIC (μg/mL) P. aeruginosa 27853
# Protocol: as §1
# E. coli BW25113 = experiment: MIC broth microdilution; assay type: cell-based; details: Escherichia coli, CAMHB, median of triplicates, read-out: MIC (μg/mL) E. coli BW25113
# Protocol: as §1
# E. coli TOP10F’ = experiment: MIC broth microdilution; assay type: cell-based; details: Escherichia coli; screening strain; CAMHB, median of triplicates; read-out: MIC (μg/mL) E. coli TOP10F’
# Protocol: as §1
# S. aureus USA 300 = experiment: MIC broth microdilution; assay type: cell-based; details: Staphylococcus aureus, USA300; clinical isolate; CAMHB, median of triplicates; read-out: MIC (μg/mL) S. aureus USA 300
# Protocol: as §1
# [2] = system: SOS stress response in E. coli MC4100; experiment: SOS stress reporter assay (PlexA-mNG); assay type: cell-based; details: EC80 compound concentrations (Fig. 5A); Fig. S4
# Excerpt: To examine the potential link between DNA gyrase inhibition, SOS stress, and CE stress, we designed a fluorescent SOS reporter plasmid, similar to the reporter plasmids used to study CE stresses.
# 5 (A) SOS stress induced by different compounds at EC80 concentrations in E. coli MC4100. (B) Rcs stress of different compounds at EC80 concentrations in E. coli MC4100. (C) Rcs stress of the nonquinolone gyrase inhibitor LEI-800 in TOP10F’. (D) Rcs stress induced by mitomycin C in E. coli TOP10F’ and E. coli MC4100. Graphs show fold change in fluorescence adjusted for bacterial growth (OD600). Error bars indicate standard deviation of triplicates. Data are representative of two independent experiments with similar results.
# E. coli MC4100 = experiment: Growth inhibition after 7 hours (EC80/EC50); details: Escherichia coli, MC4100, 7 h; for EC50: read-out: EC50 MC4100; for IC80: read-out: EC80 MC4100
smiles,measurement,setting,value
CC(C)(C)n1cc(C(=O)O)c(=O)c2cc(F)c(N3CC4CC3CN4)nc21 (stereo not shown) [A2],EC50,E. coli TOP10F',0.016 µg/mL
same,IC80,E. coli TOP10F',0.063 µg/mL
same,EC80 concentration,E. coli TOP10F'; as quoted in the NPN section,around 0.35 μM
same,growth inhibition / susceptibility of FQR (gyrA S83L) mutant,[1],showed cross-resistance
same,growth inhibition / susceptibility of GEPR mutant,[1],less susceptible
same,cell length,E. coli TOP10F’ cells,significantly increased the overall average length of the cells
same,MIC,E. coli 25922,0.125 µg/mL
same,MIC,A. baumanni 9955,0.5 µg/mL
same,MIC,K. pneumoniae 13883,0.125 µg/mL
same,MIC,P. aeruginosa 27853,1 µg/mL
same,MIC,E. coli BW25113,0.06 µg/mL
same,MIC,E. coli TOP10F’,< 0.03 µg/mL
same,MIC,S. aureus USA 300,8 µg/mL
same,SOS stress induction in MC4100,[2],induced SOS stress at similar levels as the FQ lomefloxacin
same,EC50,E. coli MC4100,0.125 µg/mL
same,IC80,E. coli MC4100,0.25 µg/mL
O=C1COc2ccc(CNC3CCN(CC4Cc5c(F)cc(F)c6ccc(=O)n4c56)CC3)nc2N1 (stereo not shown) [B1],EC50,E. coli TOP10F',0.031 µg/mL
same,IC80,E. coli TOP10F',0.5 µg/mL
same,growth inhibition / susceptibility of FQR (gyrA S83L) mutant,[1],remained susceptible to growth inhibition
same,growth inhibition / susceptibility of GEPR mutant,[1],exhibited cross-resistance
same,cell length,E. coli TOP10F’ cells,significantly increased the overall average length of the cells
same,MIC,E. coli 25922,0.5 µg/mL
same,MIC,A. baumanni 9955,0.25 µg/mL
same,MIC,K. pneumoniae 13883,1 µg/mL
same,MIC,P. aeruginosa 27853,8 µg/mL
same,MIC,E. coli BW25113,0.25 µg/mL
same,MIC,E. coli TOP10F’,< 0.03 µg/mL
same,MIC,S. aureus USA 300,0.06 µg/mL
same,SOS stress induction in MC4100,[2],induced SOS stress at similar levels as the FQ lomefloxacin
same,EC50,E. coli MC4100,0.5 µg/mL
same,IC80,E. coli MC4100,2 µg/mL

# From paper PMC12442099 (ACS Infectious Diseases, 2025)
